Results from PubChem BioAssay AID602411 (Southern Research Specialized Biocontainment Screening …, 2012).

Test system: VEEV Trinidad donkey, virus titer reduction
Assay: secondary screen, VEEV Trinidad donkey strain, virus titer reduction, 10 µM (AID 602411)
Details: at 10 µM; hits give low values

Question: Which log virus titer change does the source give for `CCN1CCN(Cc2nc3ccc([N+](=O)[O-])cc3c(=O)n2-c2ccccc2F)CC1` here?
Answer: < -5.5

Question: How did the log virus titer change turn out when `CN1CCN(Cc2nc3ccc([N+](=O)[O-])cc3c(=O)n2-c2ccccc2F)CC1` was run?
Answer: < -5.2
